Laboratory results published in US20220396569A1 (Carmot Therapeutics, Inc., priority 2021, published 2022).

target: T1, human GLP-1 receptor (Homo sapiens, UniProt P43220); assay: GLP-1R cAMP Assay (HitHunter cAMP accumulation); assay type: cell-based; conditions: cAMP accumulation, CHO cells stably overexpressing human GLP-1 receptor, 30 min treatment; read-out: EC50
T1 construct: expressed in transfected cells
In short: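 CHO cells stably expressing human GLP-1R, 10,000 cells/well in HBSS with 10 mM HEPES and 625 μM IBMX, were mixed with anti-cAMP antibody reagent. Compound was applied as a 20-point dose response in triplicate for 30 min. After lysis and overnight detection, luminescence was read and dose-response curves analysed.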

T1 sequence (P43220 24-463): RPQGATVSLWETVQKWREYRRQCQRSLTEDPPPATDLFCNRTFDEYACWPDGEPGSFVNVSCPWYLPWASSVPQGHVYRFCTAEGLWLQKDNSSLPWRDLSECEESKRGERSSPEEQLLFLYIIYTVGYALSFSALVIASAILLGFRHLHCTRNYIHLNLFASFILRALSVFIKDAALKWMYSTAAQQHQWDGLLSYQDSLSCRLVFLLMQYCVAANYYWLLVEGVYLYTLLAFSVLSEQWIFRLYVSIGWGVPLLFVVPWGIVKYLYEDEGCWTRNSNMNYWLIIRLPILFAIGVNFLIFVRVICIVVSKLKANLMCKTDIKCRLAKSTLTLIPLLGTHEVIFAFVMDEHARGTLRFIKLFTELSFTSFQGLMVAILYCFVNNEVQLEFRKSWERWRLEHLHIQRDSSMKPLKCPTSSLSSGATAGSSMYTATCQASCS

Row | EC50 | Structure (SMILES)
1 | < 50 nM | O=C(O)c1ccc2nc(CN3CCC(c4ccc(F)c(COc5ccc(Cl)cc5Cl)c4)C3)n(C[C@@H]3CCO3)c2c1 (stereo partly drawn) [Compound 389, 2-[(3-{3-[(2,4-dichlorophenoxy)methyl]-4-fluorophenyl}pyrrolidin-1-yl)methyl]-1-{[(2S)-oxetan-2-yl]methyl}-1H-1,3-benzodiazole-6-carboxylic acid]
2 | < 50 nM | N#Cc1cc(Cl)ccc1OCc1cc(OC2CN(Cc3nc4ccc(C(=O)O)cc4n3C[C@@H]3CCO3)C2)ccn1 [Example 193, (S)-2-((3-((2-((4-Chloro-2-cyanophenoxy)methyl)pyridin-4-yl)oxy)azetidin-1-yl)methyl)-1-(oxetan-2-ylmethyl)-1H-benzo[d]imidazole-6-carboxylic acid]
3 | < 50 nM | N#Cc1ccc(OCc2nc([C@@H]3CCN(Cc4nc5ccc(C(=O)O)cc5n4C[C@@H]4CCO4)C3)ccc2F)c(F)c1 (single isomer, unassigned) [Compound 518]
4 | < 50 nM | O=C(O)c1ccc2nc(CN3CCC(c4ccc(F)c(COc5ccc(Cl)cc5F)n4)C3)n(C[C@@H]3CCO3)c2c1 (stereo partly drawn) [Compound 409, 2-[(3-{6-[(4-chloro-2-fluorophenoxy)methyl]-5-fluoropyridin-2-yl}pyrrolidin-1-yl)methyl]-1-{[(2S)-oxetan-2-yl]methyl}-1H-1,3-benzodiazole-6-carboxylic acid]
5 | < 50 nM | CCn1cncc1Cn1c(CN2CCC(Cn3ccc(COc4ccc(Cl)cc4Cl)n3)CC2)nc2ccc(C(=O)O)cc21 [Example 281, 2-((4-((3-((2,4-Dichlorophenoxy)methyl)-1H-pyrazol-1-yl)methyl)piperidin-1-yl)methyl)-1-((1-ethyl-1H-imidazol-5-yl)methyl)-1H-benzo[d]imidazole-6-carboxylic acid]
6 | < 50 nM | O=C(O)c1cc(F)c2nc(CN3CC=C(c4nc(COc5ccc(Cl)cc5Cl)ccc4F)C3)n(C[C@@H]3CCO3)c2c1 [Compound 451, 2-[(3-{6-[(2,4-dichlorophenoxy)methyl]-3-fluoropyridin-2-yl}-2,5-dihydro-1H-pyrrol-1-yl)methyl]-4-fluoro-1-{[(2S)-oxetan-2-yl]methyl}-1H-1,3-benzodiazole-6-carboxylic acid]
7 | < 50 nM | O=C(O)c1ccc2nc(CN3CC=C(c4ccc(F)c(COc5ccc(Cl)cc5F)n4)C3)n(C[C@@H]3CCO3)c2c1 [Example 407, (S)-2-((3-(6-((4-Chloro-2-fluorophenoxy)methyl)-5-fluoropyridin-2-yl)-2,5-dihydro-1H-pyrrol-1-yl)methyl)-1-(oxetan-2-ylmethyl)-1H-benzo[d]imidazole-6-carboxylic acid]
8 | < 50 nM | N#Cc1ccc(OCc2nc([C@@H]3C[C@@H](CF)N(Cc4nc5ccc(C(=O)O)cc5n4C[C@@H]4CCO4)C3)ccc2F)c(F)c1 (single isomer, unassigned) [Compound 527]
9 | < 50 nM | N#Cc1ccc(OCc2nc(C34CC3CN(Cc3nc5c(F)cc(C(=O)O)cc5n3C[C@@H]3CCO3)C4)ccc2F)c(Cl)c1 (stereo partly drawn) [Compound 525, 2-[(1-{6-[(2-chloro-4-cyanophenoxy)methyl]-5-fluoropyridin-2-yl}-3-azabicyclo[3.1.0]hexan-3-yl)methyl]-4-fluoro-1-{[(2S)-oxetan-2-yl]methyl}-1H-1,3-benzodiazole-6-carboxylic acid]
10 | < 50 nM | CCn1cncc1Cn1c(CN2CCC(Cc3cccc4c3OC(C)(c3ccc(Cl)cn3)O4)CC2)nc2ccc(C(=O)O)cc21 (stereo not shown) [Compound 184, 2-[(4-{[2-(5-chloropyridin-2-yl)-2-methyl-2H-1,3-benzodioxol-4-yl]methyl}piperidin-1-yl)methyl]-1-[(1-ethyl-1H-imidazol-5-yl)methyl]-1H-1,3-benzodiazole-6-carboxylic acid]
11 | < 50 nM | N#Cc1cc(Cl)ccc1OCc1cccc(OC2CN(Cc3nc4ccc(C(=O)O)cc4n3Cc3ncco3)C2)c1 [Compound 229, 2-[(3-{3-[(4-chloro-2-cyanophenoxy)methyl]phenoxy}azetidin-1-yl)methyl]-1-[(1,3-oxazol-2-yl)methyl]-1H-1,3-benzodiazole-6-carboxylic acid]
12 | < 50 nM | O=C(O)c1cc(F)c2nc(CN3CC=C(c4ccc(F)c(COc5ccc(Cl)cc5F)n4)C3)n(C[C@@H]3CCO3)c2c1 [Compound 413, 2-[(3-{6-[(4-chloro-2-fluorophenoxy)methyl]-5-fluoropyridin-2-yl}-2,5-dihydro-1H-pyrrol-1-yl)methyl]-4-fluoro-1-{[(2S)-oxetan-2-yl]methyl}-1H-1,3-benzodiazole-6-carboxylic acid]
13 | < 50 nM | CCn1cncc1Cn1c(CN2CC(Cc3cnc(COc4ccc(Cl)cc4C#N)o3)C2)nc2ccc(C(=O)O)cc21 [Compound 167, 2-{[3-({2-[(4-chloro-2-cyanophenoxy)methyl]-1,3-oxazol-5-yl}methyl)azetidin-1-yl]methyl}-1-[(1-ethyl-1H-imidazol-5-yl)methyl]-1H-1,3-benzodiazole-6-carboxylic acid]
14 | < 50 nM | O=C(O)c1ccc2nc(CN3CC[C@@H](c4cccc(COc5ccc(Cl)cc5Cl)c4)C3)n(C[C@@H]3CCO3)c2c1 (single isomer, unassigned) [Example 405]
15 | 50 to 500 nM | O=C(O)c1cc(F)c2nc(CN3CC[C@@H](c4cccc(COc5ccc(Cl)cc5F)n4)C3)n(C[C@@H]3CCO3)c2c1 [Compound 441, 2-{[(3R)-3-{6-[(4-chloro-2-fluorophenoxy)methyl]pyridin-2-yl}pyrrolidin-1-yl]methyl}-4-fluoro-1-{[(2S)-oxetan-2-yl]methyl}-1H-1,3-benzodiazole-6-carboxylic acid]
16 | < 50 nM | O=C(O)c1ccc2nc(CN3CC=C(c4ccnc(COc5ccc(Cl)cc5F)c4)C3)n(Cc3ncco3)c2c1 [Compound 404, 2-[(3-{2-[(4-chloro-2-fluorophenoxy)methyl]pyridin-4-yl}-2,5-dihydro-1H-pyrrol-1-yl)methyl]-1-[(1,3-oxazol-2-yl)methyl]-1H-1,3-benzodiazole-6-carboxylic acid]
17 | < 50 nM | O=C(O)c1ccc2nc(CN3CC[C@@H](c4ccc(F)c(COc5ccc(Cl)cc5F)c4)C3)n(C[C@@H]3CCO3)c2c1 [Compound 446, 2-{[(3S)-3-{3-[(4-chloro-2-fluorophenoxy)methyl]-4-fluorophenyl}pyrrolidin-1-yl]methyl}-1-{[(2S)-oxetan-2-yl]methyl}-1H-1,3-benzodiazole-6-carboxylic acid]
18 | < 50 nM | N#Cc1ccc(OCc2cc(Oc3ccc(Cc4nc5c(F)cc(C(=O)O)cc5n4C[C@@H]4CCO4)c(C#N)c3)ccn2)c(F)c1 [Compound 543, 2-{[2-cyano-4-({2-[(4-cyano-2-fluorophenoxy)methyl]pyridin-4-yl}oxy)phenyl]methyl}-4-fluoro-1-{[(2S)-oxetan-2-yl]methyl}-1H-1,3-benzodiazole-6-carboxylic acid]
19 | < 50 nM | O=C(O)c1ccc2nc(CN3CC(Oc4cnc(COc5ccc(Cl)cc5Cl)o4)C3)n(C[C@@H]3CCO3)c2c1 [Example 213, (S)-2-((3-((2-((2,4-Dichlorophenoxy)methyl)oxazol-5-yl)oxy)azetidin-1-yl)methyl)-1-(oxetan-2-ylmethyl)-1H-benzo[d]imidazole-6-carboxylic acid]
